Experimental findings from patent US6541503B2, “Substituted oxindole derivatives as protein tyrosine kinase and as protein serine/threonine kinase inhibitors” (SmithKline Beecham Corporation, priority 1997, dated 2003) are described below.

The target of one assay is CDK2 (Homo sapiens, UniProt P24941). In words: Cyclin dependent protein kinase substrate phosphorylation assay, CDK2. It counts as biochemical.
Another assay has as its target CDK1 (Homo sapiens, UniProt P06493). In words: Cyclin dependent protein kinase substrate phosphorylation assay, CDK1. In kind it is biochemical. Conditions: read-out: CDK1 IC50. How it is done:
Cyclin dependent protein kinase assays utilized the peptides Biotin-aminohexyl-[…] and Biotin-aminohexyl-[…]-NH2 as phosphoryl group acceptors. CDK1 and CDK2 were both expressed utilizing a baculovirus expression system and were partially purified to comprise 20-80% of total protein, with no detectable competing reactions present. Typically, assays were performed by incubating either enzyme (0.2-10 nM), with and without inhibitor, one of the two peptide substrates ([…]), [γ-^32P]ATP ([…]), and 10-20 mM Mg^2+ for periods of time generally within the range 10-120 min. Reactions were terminated with 0.2-2 volumes of either 20% acetic acid or 50-100 mM EDTA buffered to pH 7 (substrate consumption<20%). The buffer employed in enzyme assays was either 30 mM HEPES 7.4 containing 0.15 M NaCl and 5% DMSO, the buffer 50 mM MOPS 7.0 containing 0.15 M NaCl and 5% DMSO, or the buffer 100 mM HEPES pH 7.5 containing 0.1 mg /mL BSA and 5% DMSO. Inhibitors were diluted in 100% DMSO prior to addition into the assay. Detection of peptide phosphorylation was accomplished by scintillation counting following either collection of peptide onto phosphocellulose filters (for reactions stopped with acetic acid), collection of peptide in wells of 96 well plates coated with Streptavidin (Pierce) (reactions were stopped with EDTA), or addition of Avidin coated Scintillant impregnated beads (Scintillation Proximity Assays from Amersham, reactions were stopped with EDTA).

The test system of assay [1] is RKO colon adenocarcinoma cells. In words: FACS assay (cell death by flow cytometry), RKO. In kind it is cell-based, human. Conditions: 50% cell death, 72 h, read-out: FACS RKO IC50. How it is done:
(§1) These assays allow determination of both cell death and changes in cell cycle profile in cells following treatment of the compound. The assay is performend as follows:
(§2) 1. Cells are incubated in DMEM to which 10% FCS has been added in a humidified incubator at 37° C. and 5% by volume of CO2 in air. The cells are innoculated in 6-well plates at a density of 0.5-5×10^5 cells per well.
(§3) 2. The test compound is added in serial dilutions 24-36 h after plating in 0.5% DMSO. The plates are then incubated a further 72 h in the presence of the compound. During this time, cells in control cultures undergo at least three cell divisions.
(§4) 3. After incubation, the media is collected and cells are harvested by trypsinization. The cells and media are pooled and pelleted by centrifugation.
(§5) 4. The cell pellet is fixed in a final volume of 3 mL of 50% ice cold MeOH and incubated for a minimum of 30 min at −20° C.
(§6) 5. The cells are pelleted by centrifugation and resuspended in 0.5 mL PBS containing 1%FCS, […] Propidium Iodide (PI) and 5 mg/mL RNase A and incubated 30 min at 37° C. in the dark.
(§7) 6. The samples are analysed by flow cytometry using the relative incorporation of PI as a measure of DNA content of each cell. The % Dead cells is recorded as % of events with less than 2N DNA.
(§8) HDF are normal diploid fibroblast cells. RKO are colon adenocarcinoma cells and MES/SA are […].
(A flow cytometer gives signals particle by particle.)

A further assay concerns MDA MB468. In words: MTT assay, MDA MB468. It counts as cell-based, human. The conditions noted are these: read-out: MTT MDA MB468 IC50. The procedure:
(§9) Compounds are tested for their ability to inhibit cell proliferation and cell viability. The metabolic conversion of 3-(4,5-dimethylthiazol-2-yl)-2,5-diphenyltetrazolium bromide (MTT, Sigma #M2128) to a reduced form is a commonly used measure of cellular viability. Following is the procedure:
(§10) Cells are maintained in 75 cm^2 tissue culture flasks until ready for use. The cells are grown and plated for the assay in Dulbecco's modified Eagle's media (DMEM) containing 10% fetal bovine serum. For example, the following cell lines can be used: a) human foreskin fibroblasts (HFF); b) HT29 (human colon carcinoma cell line); c)MDA-MB-468 (human breast carcinoma cell line); d) RKO (human colon adenocarcinoma cell line); e) SW620 (human colon carcinoma cell line); f) A549 (human lung carcinoma cell line); and g) MIA PACA (human pancreatic carcinoma cell line). Cells are maintained at 37° C. in 10% CO2, 90% humidified air. Cells are plated in 96-well tissue culture plates at the densities listed below. 100 μL of cell suspension is added to each well of the 96-well plate except the top row of the plate which contains no cells and serves as a reference for the spectrophotometer.
(§11) Cells are incubated overnight in DMEM containing 10% fetal bovine serum at 37° C. in 10% CO2, 90% humidified air prior to dosing. […] Compounds with solubilities of less than 30 μM are dosed at the highest soluble concentration. Stock solutions of compounds are made in 100% dimethyl sulfoxide (DMSO). Stock solutions are diluted in DMEM containing 100 μg/ml gentamicin and 0.3 to 0.6% DMSO at the twice the highest concentration to be placed on the cells. If compounds have been dissolved in DMSO the final concentration of DMSO on the cells is kept below 0.3%. Three-fold serial dilutions are performed on each compound to prepare 10 concentrations of the compound for dosing. 100 μl of diluted compound is added to the 100 μl of media currently on the dish. For each concentration of compound, 2-4 replicate wells are prepared.
(§12) Cells are returned to incubator and allowed to proliferate in the presence of compound for 72 h before addition of MTT. MTT is prepared in phosphate buffered saline (Irvine Scientific #9240) at a concentration of 2 mg/ml. 50 μl per well of MTT solution is added to the 200 μl of media to yield a final concentration of 0.4 mg/ml and plates are returned to the incubator for 4 h. After 4 h incubation the media, compound and MTT mixture is aspirated from the plates and 100 μl of 100% DMSO is added to each well in addition to 25 μl of Sorenson's Buffer (0.1M glycine, 0.1M NaCl, pH 10.5). Quantitation of metabolic reduction of MTT in each plate is performed by reading optical density at 570 nm wavelength on a Molecular Devices UVmax microplate reader. Growth inhibition curves and 50% inhibitory concentrations are determined using Microsoft Excel.
For orientation: Tetrazolium dyes change colour on reduction, which living cells bring about.

In assay [2] the test system is human diploid fibroblasts (HDF-3). In words: G1-S progression assay (BrdU incorporation). It counts as cell-based. The conditions noted are these: read-out: G1/S Chkpt IC50. The procedure: This assay is designed to determine the ability of compounds to inhibit progression of cells from G1 into S-phase. […] The protocol is as follows:
(1) Grow human diploid fibroblasts (HDF-3) in 100 mm tissue culture dish to confluency. (2) Plate 6-7×10^3 cells/well in a 96 well plate in 100 μl of DMEM. (3) After 16-17 h add various dilutions of test compounds (0.045-100 μM). Dilute compound in DMEM containing DMSO and add 100 μl to each well so that the DMSO conc. is 0.6-0.8% in 200 μl final volume. (4) Two h after addition of compound, add 20 ul of 100 μM BrdU (final conc. 10 μM) Make 100 μM solution in DMEM from 10 mM stock solution. (5) After 4 h, add 200 μl PBS to each well and remove the contents of the wells by inverting the plate and soaking on to the paper towel. Repeat the washing step three times, with 400 ul PBS each time. (6) Fix the cells and denature the DNA by adding 200 μl fixation/denaturation solution to each well for 30-40 min. (7) Remove the fixation/denaturation solution by tapping the plate on the paper towel and add 75 ul of anti BrdU peroxidase antibody to each well. (dilute the antibody to 0.1 U/mL from 15 U/mL stock in PBS containing 1% BSA, Fraction V). Incubate the plate O/N at 4° C. (8) Remove the antibody solution and wash wells four times with 400 μl of PBS. Let the wash solution stay for 3-4 min during each wash. (9) Drain the wells and add 100 μl of chemiluminiscence Elisa reagent (Prepare the reagent 15-20 min before use to bring it to rt by mixing 100 parts of reagent A with 1 part of reagent B). (10) Read the plate in a luminometer. Take 2-3 readings within 6-7 min. Perform the following controls:
Deoxybromouridine (BrdU), anti BrdU peroxidase antibodies, fixation/denaturation solution, chemiluminiscence reagent and BSA Fraction V, were obtained from Boehringer Mannheim. The 96-well white plate with clear bottom were purchased from Corning Costar Corporation. Dulbecco's Modified Eagle Medium containing high glucose, L-glutamine and pyridoxine HCl was obtained from GIBCO BRL.
Background: Uptake of a labelled nucleoside into DNA is a usual measure of proliferation.

Assay [3] concerns HDF normal diploid fibroblast cells. In words: FACS assay (cell death by flow cytometry), HDF. In kind it is cell-based, human. The conditions noted are these: 50% cell death, 72 h; read-out: FACS HDF IC50. How it is done:
as §1, §2, §3, §4, §5, §6, §7, §8

Assay [4] deals with MES/SA ovarian carcinoma cells. Put plainly: FACS assay (cell death by flow cytometry), MES/SA. Conditions: 50% cell death, 72 h, read-out: FACS MES/SA IC50. It counts as cell-based. How it is done: as §1, §2, §3, §4, §5, §6, §7, §8
For assay [5], the system named is HDF normal diploid fibroblast cells. In words: MTT assay, HDF. It counts as cell-based, human. Conditions: 72 h; read-out: MTT HDF IC50. How it is done:
as §9
as §10, with “100 μL of cell suspension is added to each well of the 96-well plate except the top row of the plate which contains no cells and serves as a reference for the spectrophotometer.” left out
Cells are returned to incubator and allowed to proliferate in the presence of compound for 72 h before addition of MTT. […] Quantitation of metabolic reduction of MTT in each plate is performed by reading optical density at 570 nm wavelength on a Molecular Devices UVmax microplate reader. Growth inhibition curves and 50% inhibitory concentrations are determined using Microsoft Excel. […]

Assay [6] concerns RKO colon adenocarcinoma cells. Put plainly: MTT assay, RKO. It counts as cell-based, human. The conditions noted are these: 72 h, read-out: MTT RKO IC50. How it is done:
as §9, §10, §11, §12, §8

SMILES strings stand for the structures. Like-named read-outs stand apart in the source and are kept apart here.

Chain of CDK1 (P06493 whole entry, species assumed): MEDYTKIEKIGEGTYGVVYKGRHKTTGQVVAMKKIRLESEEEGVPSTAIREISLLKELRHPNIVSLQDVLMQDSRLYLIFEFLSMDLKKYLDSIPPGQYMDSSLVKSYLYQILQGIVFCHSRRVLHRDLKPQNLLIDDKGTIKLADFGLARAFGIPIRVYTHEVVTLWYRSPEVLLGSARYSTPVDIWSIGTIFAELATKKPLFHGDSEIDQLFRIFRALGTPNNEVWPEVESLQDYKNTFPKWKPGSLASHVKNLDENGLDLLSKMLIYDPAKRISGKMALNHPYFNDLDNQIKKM
Chain of CDK1 (P14635 whole entry partner, species assumed): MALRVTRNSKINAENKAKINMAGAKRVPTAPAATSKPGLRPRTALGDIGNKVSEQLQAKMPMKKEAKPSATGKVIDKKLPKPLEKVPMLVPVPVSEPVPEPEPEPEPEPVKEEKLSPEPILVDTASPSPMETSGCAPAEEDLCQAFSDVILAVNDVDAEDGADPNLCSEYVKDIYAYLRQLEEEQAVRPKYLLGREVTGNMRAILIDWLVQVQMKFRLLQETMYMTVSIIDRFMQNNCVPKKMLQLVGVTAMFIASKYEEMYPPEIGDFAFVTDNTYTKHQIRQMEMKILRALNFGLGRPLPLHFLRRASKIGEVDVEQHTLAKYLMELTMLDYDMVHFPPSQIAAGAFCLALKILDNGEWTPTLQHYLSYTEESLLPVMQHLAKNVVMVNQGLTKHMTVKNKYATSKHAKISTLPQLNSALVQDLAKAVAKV
Protocol for CDK2: CDK1 and CDK2 were both expressed utilizing a baculovirus expression system and were partially purified to comprise 20-80% of total protein, with no detectable competing reactions present. […] Reactions were terminated with 0.2-2 volumes of either 20% acetic acid or 50-100 mM EDTA buffered to pH 7 (substrate consumption<20%). The buffer employed in enzyme assays was either 30 mM HEPES 7.4 containing 0.15 M NaCl and 5% DMSO, the buffer 50 mM MOPS 7.0 containing 0.15 M NaCl and 5% DMSO, or the buffer 100 mM HEPES pH 7.5 containing 0.1 mg /mL BSA and 5% DMSO. Inhibitors were diluted in 100% DMSO prior to addition into the assay. Detection of peptide phosphorylation was accomplished by scintillation counting following either collection of peptide onto phosphocellulose filters (for reactions stopped with acetic acid), collection of peptide in wells of 96 well plates coated with Streptavidin (Pierce) (reactions were stopped with EDTA), or addition of Avidin coated Scintillant impregnated beads (Scintillation Proximity Assays from Amersham, reactions were stopped with EDTA).

Turning to `O=C1Nc2ccc3ncsc3c2C1=CNc1ccc2nn[nH]c2c1` [Example 101, 8-(3H-Benzotriazol-5-ylaminomethylene)-6,8-dihydro-1-thia-3,6-diaza-as-indacene-7-one], the IC50 is 11 to 50 nM on CDK2; 51 to 100 nM on CDK1; over 5000 nM in assay [1] (Homo sapiens); 1100 to 5000 nM in the assay with MDA MB468 (Homo sapiens, MDA-MB-468, 72 h).

As for `NS(=O)(=O)c1ccc(NN=C2C(=O)Nc3ccc(-c4cnco4)cc32)cc1` [Example 36, 4-[1-(5-Oxazol-5-yl-2-oxo-1,2-dihydro-indol-3-ylidene)-hydrazino]-benzenesulfonamide], the IC50 in [2] is 600 to 1000 nM; in assay [3] it was over 5000 nM; in [1], 600 to 1000 nM; in assay [4] it was 100 to 500 nM; in assay [5], 1100 to 5000 nM; in assay [6], 600 to 1000 nM. Besides, in the assay with MDA MB468 (72 h), the IC50 lay within 600 to 1000 nM.

`COC(=O)c1ccc2c(c1)/C(=C/Nc1ccc(S(N)(=O)=O)cc1)C(=O)N2` [Example 27, 2-Oxo-3-(4-sulfamoyl-phenylamino-methylene)-2,3-dihydro-1H-indole-5-carboxylic acid methyl ester]: the IC50 on CDK1 was in the range of 11 to 50 nM.

As for `CN(C)S(=O)(=O)c1ccc(NC=C2C(=O)Nc3ccc(-c4cnco4)cc32)cc1` [Example 35, N,N-Dimethyl-4-[(5-oxazol-5-yl-2-oxo-1,2-dihydro-indol-3-ylidenemethyl)-amino]-benzenesulfonamide], the IC50 at CDK2 was 1 to 10 nM; on CDK1, 11 to 50 nM; in [1] (Homo sapiens) it was 1100 to 5000 nM; in assay [4] (Homo sapiens, MES-SA) it was over 5000 nM; in [6] (Homo sapiens), 1100 to 5000 nM; with MDA MB468 (Homo sapiens, MDA-MB-468, 72 h), over 5000 nM.

On to `CC(C)COC(=O)c1ccc2c(c1)C(=CNc1ccc(S(N)(=O)=O)cc1)C(=O)N2` [Example 103, 2-Oxo-3-(4-sulfamoyl-phenylamino-methylene)-2,3dihydro-1H-indole-5-carboxylic acid isobutyl ester], for which the IC50 on CDK2 fell in the range of 1 to 10 nM; on CDK1 it was 11 to 50 nM; in assay [6] (Homo sapiens) it was 1100 to 5000 nM; with MDA MB468 (Homo sapiens, MDA-MB-468, 72 h), 1100 to 5000 nM.

In the case of `CCC(C)Cc1cccc2c1C(=NNc1ccc(S(N)(=O)=O)cc1)C(=O)N2` (centres unmarked) [Example 11, 4-{N′-[4-(2-methylbutyl)-2-oxo-1,2-dihydro-indol-3-ylidene]-hydrazino}-benzenesulfonamide], the IC50 against CDK2 was 1 to 10 nM; on CDK1, 11 to 50 nM; in [2] (Homo sapiens, Fibroblast) it was 1100 to 5000 nM; in assay [1] (Homo sapiens), 1100 to 5000 nM.
